In patent US20230322805A1, “NOVEL PYRIMIDODIAZEPINE DERIVATIVES OR USES THEREOF” (SPARK BIOPHARMA, INC., priority 2020, published 2023):
Where two headings read alike, the source gives them in different places.

Experiments:
[1] = Pharmacokinetics test in male ICR mice; type: in vivo; conditions: CD-1 (ICR), mouse, plasma, 5 mg/kg; for half-life: male
Protocol: After intravenous or intraperitoneal administration (5 mg/kg, 3.3 mL/kg) of the compound (SB1617, 5% DMSO/[…]) according to the present invention to CD-1 (ICR) male mice (7 weeks old, KOATECH, Korea), blood was collected at designated time points from the orbital venous plexus. The concentration of the compound (SB1617) according to the present invention was examined from the plasma samples using an LC-MS/MS analyzer (Agilent 1200, 4000 Qtrap). Pharmacokinetic parameters were obtained from plasma concentration-time plots using WinNonlin software (Pharsight, USA).
6-1. In order to evaluate the suitability of the compound (SB1617) according to this invention in vivo, pharmacokinetic properties and blood-brain barrier penetration properties were identified using male ICR mice according to the methods described in Examples 1-15 and 1-16.

[2] = tested on: acute Alzheimer's mouse model; experiment: Acute Alzheimer's mouse model (acquisition and probe test); type: in vivo
Protocol: 7-1. Potential therapeutic effect of SB1617 in an acute Alzheimer's mouse model was identified, and the design for the experiment is schematically shown in FIG. 40
7-3. As a result of confirming the treatment efficacy through a probe test, after removing the platform, it was performed by recording how many times the mouse passed the position where the platform was […]

[3] = tested on: tau (Tau5, phospho S199, T231) in BiFC-tau Venus HEK293 cells; experiment: Immunoblot of total tau and phospho-tau in HEK293 BiFC-tau cells; type: cell-based, human
Protocol: Cells were collected and lysed in modified radioimmunoprecipitation assay(RIPA) buffer 50 mM Tris-HCl, pH 7.8, […], 1% NP-40, 0.5% deoxycholate, 5 mM NaF, 2 mM Na3VO4, and 1× Protease Inhibitor Cocktail(Roche). The concentration of total protein in each lysate was then determined using a whole cell assay and Pierce BCA Protein Assay Kit (ThermoFisher Scientific). Centrifugation was performed at 200 g for 10 minutes at 4° C. for measurement. Equal amounts of each lysate were fractionated by PAGE, transferred to a PVDF membrane (Bio-Rad), and blocked with 2% bovine serum albumin (BSA, MP Biomedicals) in Tris Buffered Saline supplemented with Tween20 (TBST, Sigma) for 1 hour at room temperature.
Membranes were probed with protein-specific antibodies overnight at 4° C. The following day, membranes were washed three times in TBST and incubated with 2% BSA in TBST for 1 hour at room temperature with anti-rabbit or anti-mouse horseradish peroxidase secondary antibodies (Cell Signaling Technology). After washing, membranes were exposed to detection reagents (GE Healthcare) and quantified via chemiluminescence (Bio-Rad). […]

## CN(Cc1ccc(Cl)cc1)c1ncnc2c1[C@@H]1OC[C@H](CN2)N1S(=O)(=O)c1ccc([N+](=O)[O-])cc1 [Compound 117]
[1]; ip, I.P.
  AUC(0-inf): 5650 ± 3320 ng·h/mL
  AUC(0-t): 6070 ± 2810 ng·h/mL
  Cmax: 857 ± 339 ng/mL
  Tmax: 1.67 ± 2.02 h
[1]; iv, I.V.
  AUC(0-inf): 4490 ± 150 ng·h/mL
  AUC(0-t): 4190 ± 112 ng·h/mL
  clearance: 18.7 mL/min/kg
[1]; iv, I.V., read-out: Vss
  Vd: 6.27 ± 0.928 L/kg
[1]; ip, I.P., read-out: T1/2 (converted)
  half-life: 6.57 ± 0.0563 h
[1]; ip, intraperitoneal injection, read-out: half-life (converted)
  half-life: ~6.6 h
[1]; iv, I.V., read-out: T1/2 (converted)
  half-life: 5.51 ± 1.86 h
[2]; acute Alzheimer's mouse model
  learning ability (Acquisition test), rank order: WT >Donepezil >SB-1617>Vehicle
[2]; compared to the vehicle
  probe test, number of times of entering the SW quadrant space: significantly higher value
  probe test, number of times passing the virtual platform: significantly higher value
  probe test, time to reach the platform: significantly lower value
[2]; mouse, in vivo
  probe test, percentage (%) of the time spent in the quadrant where the platform exists: remembered the location of the platform well
[3]; 10 μM SB1617, 200 nM TG, pre-treated with 20 μg/mL cycloheximide, 8 hours
  total tau level: did not cause a significant change in tau level
[3]; SB1617 and TG with autophagy inhibitors 3-methyladenine and bafilomycin A1
  effect on reduction of total tau level: is reduced, but does not completely diminish
[3]; with 80 nM thapsigargin for 20 hours
  total tau (Tau5) and phospho-tau (S199, T231) levels: decreased all tau levels
